Active and inactive are the calls of the source. No rule for the calls is given here.
Target: Dual specificity protein phosphatase 1 (Homo sapiens) (UniProt P28562)
Assay: DTT effect on MKP-1 inhibitor potency – biochemical, DTT added, probe assessment, dose response (AID 558)
Details: recombinant MKP-1 phosphatase, fluorescence, with DTT

Dual specificity protein phosphatase 1 (Homo sapiens), sequence (P28562 whole entry, looked up): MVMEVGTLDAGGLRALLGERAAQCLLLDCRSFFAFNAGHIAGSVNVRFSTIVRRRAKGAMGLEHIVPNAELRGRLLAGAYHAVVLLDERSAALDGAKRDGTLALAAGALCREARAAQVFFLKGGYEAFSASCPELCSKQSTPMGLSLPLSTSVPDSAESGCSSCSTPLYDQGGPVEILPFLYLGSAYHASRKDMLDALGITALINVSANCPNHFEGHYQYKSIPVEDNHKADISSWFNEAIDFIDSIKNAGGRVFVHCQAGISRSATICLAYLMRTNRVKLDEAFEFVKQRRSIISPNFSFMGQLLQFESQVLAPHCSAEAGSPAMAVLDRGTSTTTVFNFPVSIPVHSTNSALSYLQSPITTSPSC

Structure (SMILES): O=C1C(C2=C(O)c3ccccc3C2=O)=Nc2ccccc21
- IC50: > 50 µM (inactive)

Reference: PubChem BioAssay AID558 (University of Pittsburgh Molecular Library Screening Center, 2006)
